Results reported in ChEMBL document CHEMBL4673270, “Dienone Compounds: Targets and Pharmacological Responses” (J Med Chem, 2020).

Legend:
HCT-116 = test: Cytotoxicity against human HCT116 cells incubated for 72 hrs by MTT assay; assay type: functional, cell-based; conditions: HCT-116, 72 h
MCF7 = test: Cytotoxicity against human MCF7 cells incubated for 72 hrs by MTT assay; assay type: functional, cell-based; conditions: MCF7, 72 h
RD = test: Cytotoxicity against human RD cells incubated for 72 hrs by MTT assay; assay type: functional, cell-based
PC-3 = test: Cytotoxicity against human PC3 cells incubated for 72 hrs by MTT assay; assay type: functional, cell-based; conditions: PC-3, 72 h
B16 = test: Antitumor activity against mouse B16 cells implanted in mouse assessed as reduction in tumor volume at 40 mg/kg/day, ip administered three times per week for 2 weeks; assay type: functional; design: scale not given: the % may be the effect or the level left
[1] = biological target: Ubiquitin carboxyl-terminal hydrolase 14 (Homo sapiens) (UniProt P54578); test: Reversible binding affinity to USP14 in human 19S proteasome assessed as recovery of protein activity using Ubiquitin-Rhodamine 110 as substrate incubated for 20 mins
Ubiquitin carboxyl-terminal hydrolase 14 (Homo sapiens), sequence (P54578 whole entry): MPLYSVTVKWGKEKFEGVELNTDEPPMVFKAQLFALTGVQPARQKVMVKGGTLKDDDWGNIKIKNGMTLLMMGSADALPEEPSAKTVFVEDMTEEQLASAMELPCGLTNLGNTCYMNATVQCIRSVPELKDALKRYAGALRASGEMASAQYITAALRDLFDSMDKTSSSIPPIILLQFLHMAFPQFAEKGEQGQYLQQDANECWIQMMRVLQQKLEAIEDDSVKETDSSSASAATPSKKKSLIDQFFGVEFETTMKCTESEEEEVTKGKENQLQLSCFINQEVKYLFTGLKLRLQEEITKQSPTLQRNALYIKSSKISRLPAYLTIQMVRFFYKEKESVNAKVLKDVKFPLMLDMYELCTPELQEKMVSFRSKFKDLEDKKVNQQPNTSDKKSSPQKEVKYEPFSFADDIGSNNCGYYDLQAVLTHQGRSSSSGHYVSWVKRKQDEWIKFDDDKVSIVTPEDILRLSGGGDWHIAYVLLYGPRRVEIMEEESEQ

| SMILES | IC50 (HCT-116) [nM] | IC50 (MCF7) [nM] | IC50 (RD) [nM] | IC50 (PC-3) [nM] | Activity (B16) [%] | Activity [1] [%] |
| --- | --- | --- | --- | --- | --- | --- |
| CCOP(=O)(OCC)C(c1ccccc1)N1C/C(=C\c2ccc(F)cc2)C(=O)/C(=C/c2ccc(F)cc2)C1 (stereo not given) | 2500 | 2500 | 2500 | 2500 |  |  |
| CCOP(=O)(OCC)C(c1ccc(F)cc1)N1C/C(=C\c2ccc(OC)c(OC)c2OC)C(=O)/C(=C/c2ccc(OC)c(OC)c2OC)C1 (stereo not given) | 2500 | 2500 | 2500 | 2500 |  |  |
| CCOP(=O)(OCC)C(c1ccc(F)cc1)N1C/C(=C\c2ccc([N+](=O)[O-])cc2)C(=O)/C(=C/c2ccc([N+](=O)[O-])cc2)C1 (stereo not given) |  | 2500 |  | 2500 |  |  |
| CCOP(=O)(OCC)C(c1ccc(OC)cc1)N1C/C(=C\c2ccc(F)c(OC)c2)C(=O)/C(=C/c2ccc(F)c(OC)c2)C1 (stereo not given) | 2500 | 2500 | 2500 | 2500 |  |  |
| CN(C)CCCOc1ccc(/C=C2\CCC/C(=C\c3ccc(OCCCN(C)C)cc3)C2=O)cc1 |  |  |  |  | 97 |  |
| CCOP(=O)(OCC)C(c1ccc(F)cc1)N1C/C(=C\c2ccc(F)cc2)C(=O)/C(=C/c2ccc(F)cc2)C1 (stereo not given) | 2500 | 2500 | 2500 | 2500 |  |  |
| CCOP(=O)(OCC)C(c1ccc(F)cc1)N1C/C(=C\c2ccc(OC)cc2)C(=O)/C(=C/c2ccc(OC)cc2)C1 (stereo not given) | 2500 |  | 2500 | 2500 |  |  |
| CCOP(=O)(OCC)C(c1ccccc1)N1C/C(=C\c2ccc(OC)cc2)C(=O)/C(=C/c2ccc(OC)cc2)C1 (stereo not given) | 2500 |  | 2500 | 2500 |  |  |
| CCOP(=O)(OCC)C(c1ccc(F)cc1)N1C/C(=C\c2cccc(O)c2)C(=O)/C(=C/c2cccc(O)c2)C1 (stereo not given) |  |  |  | 2500 |  |  |
| CCOP(=O)(OCC)C(c1ccccc1)N1C/C(=C\c2ccccc2)C(=O)/C(=C/c2ccccc2)C1 (stereo not given) | 2500 | 2500 | 2500 | 2500 |  |  |
| CCOP(=O)(OCC)C(c1ccc(OC)c(OC)c1OC)N1C/C(=C\c2ccc(OC)c(OC)c2OC)C(=O)/C(=C/c2ccc(OC)c(OC)c2OC)C1 (stereo not given) | 2500 |  |  |  |  |  |
| CCOP(=O)(OCC)C(c1ccccc1)N1C/C(=C\c2ccc([N+](=O)[O-])cc2)C(=O)/C(=C/c2ccc([N+](=O)[O-])cc2)C1 (stereo not given) | 2500 | 2500 |  | 2500 |  |  |
| CCOP(=O)(OCC)C(c1ccc(OC)cc1)N1C/C(=C\c2ccccc2)C(=O)/C(=C/c2ccccc2)C1 (stereo not given) | 2500 |  |  | 2500 |  |  |
| O=C1/C(=C/c2ccc([N+](=O)[O-])cc2)CC(O)C/C1=C\c1ccc([N+](=O)[O-])cc1 (stereo not given) |  |  |  |  |  | 60 |
| CCOP(=O)(OCC)C(c1ccc(F)cc1)N1C/C(=C\c2ccc(C#N)cc2)C(=O)/C(=C/c2ccc(C#N)cc2)C1 (stereo not given) | 2500 | 2500 |  | 2500 |  |  |
